Values of other authors in patent US9987239B1, “Pharmaceutical retinoid preparation for topical use” (Rey Ventures, LLC, priority 2017, dated 2018).

## COc1ccc(-c2ccc3cc(C(=O)O)ccc3c2)cc1C12CC3CC(CC(C3)C1)C2 [adapalene, 6-[3-(1-adamantyl)-4-methoxyphenyl] naphthalene-2-carboxylic]
Ethyl alcohol
  solubility of adapalene in ethyl alcohol: 1000 µg/mL
water
  solubility of adapalene (water): 0.004 µg/mL
